Assay results: PubChem BioAssay (NCI)
Several values for one entry are separate records, joined by “and”; a condition that tells them apart may be missing. Identical values can stand only once.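 Five concentrations, 48 hours, 96-well plates. Here, GI50 denotes the concentration required for 50% inhibition of growth. The concentration for full growth arrest is given as TGI.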

Columns and labels:
Test in all cases: inhibition of tumour cell growth, NCI panel, 48 h
SF-268 CNS = tested on: SF-268 CNS
786-0 renal = tested on: 786-0 renal
M14 melanoma = tested on: M14 melanoma
UACC-257 melanoma = tested on: UACC-257 melanoma
MALME-3M melanoma = tested on: MALME-3M melanoma
T-47D breast = tested on: T-47D breast
HCT-116 colon = tested on: HCT-116 colon
BT-549 breast = tested on: BT-549 breast

SMILES | TGI (SF-268 CNS) | TGI (786-0 renal) | TGI (M14 melanoma) | TGI (UACC-257 melanoma) | TGI (MALME-3M melanoma) | TGI (T-47D breast) | TGI (HCT-116 colon) | TGI (BT-549 breast) | GI50 (786-0 renal) | GI50 (M14 melanoma) | GI50 (MALME-3M melanoma) | GI50 (T-47D breast) | GI50 (HCT-116 colon) | GI50 (BT-549 breast) | GI50 (SF-268 CNS) | GI50 (UACC-257 melanoma)
c1cc(CCN2CCCCC2)ccn1 | > 100000 nM | > 100000 nM | > 100000 nM | > 100000 nM | > 100000 nM | > 100000 nM | > 100000 nM | > 100000 nM | – | – | – | – | – | – | – | –
Cn1ccc2c(c1=O)C(=O)c1nccc3c1c-2nc1ccccc13 | – | 3180 nM | 3520 nM | – | 4090 nM | 3740 nM | 2870 nM | 4770 nM | 1640 nM | 1840 nM | 2200 nM | 1800 nM | 1350 nM | 2120 nM | – | –
O=C(/C=C/c1cccs1)c1ccc(Nc2nc(Nc3ccc(F)cc3)nc(Nc3ccc(F)cc3)n2)cc1 | > 100000 nM | > 100000 nM | > 100000 nM | > 100000 nM | > 100000 nM | 79100 nM | > 100000 nM | 32400 nM | 38500 nM | 29700 nM | 40400 nM | 15200 nM | 23600 nM | 16700 nM | 30200 nM | 55100 nM
COC(C(=O)C(O)C(C)O)C1Cc2cc3cc(OC4CC(OC(C)=O)C(OC5CC(O)C(OC)C(C)O5)C(C)O4)cc(O)c3c(O)c2C(=O)C1OC1CC(OC2CC(OC3CC(C)(O)C(OC(=O)C(C)C)C(C)O3)C(O)C(C)O2)C(O)C(C)O1 (configuration not stated) | – | 826 nM | 257 nM and 29.2 nM | 97.7 nM and 24.9 nM and < 49.2 nM | – | – | – | 44.4 nM | 76.3 nM and 16.8 nM | – | – | – | – | – | – | 3.48 nM and < 15.5 nM
O=C1/C(=C/c2ccccc2F)CNC/C1=C\c1ccccc1F | 5370 nM and 1210 nM | 505 nM and 2150 nM | 3730 nM and 2840 nM | 4160 nM and 3950 nM | 6380 nM and 4510 nM | 6100 nM and 12200 nM | 549 nM and 341 nM | 1430 nM and 2250 nM | 233 nM and 739 nM | 1160 nM and 1200 nM | 2260 nM and 1830 nM | 1070 nM and 2600 nM | 224 nM and 177 nM | 434 nM and 782 nM | 620 nM and 309 nM | 1620 nM and 1730 nM
C/C(=C\c1ccn(-c2ccc(N)c(F)c2)n1)[C@@H]1C[C@@H]2O[C@]2(C)CCC[C@H](C)[C@H](O)[C@@H](C)C(=O)C(C)(C)[C@@H](O)CC(=O)O1 | > 50000 nM | > 50000 nM | – | > 50000 nM | > 50000 nM | > 50000 nM | > 50000 nM | 25400 nM | 25.3 nM | – | 21.7 nM | 24.9 nM | 7.96 nM | 41 nM | 41.8 nM | 45.8 nM
COc1ccc(-c2cc(-c3ccccc3)nc(N3CCN(CCNc4ccnc5cc(Cl)ccc45)CC3)n2)cc1 | 3810 nM | 2940 nM | – | – | 3140 nM | 3730 nM | – | 32300 nM | 1520 nM | – | 1610 nM | 1550 nM | – | 14600 nM | 1750 nM | –
C[C@H]1[C@H](C)CC[C@]2(C(=O)N3CCN(C)CC3)CC[C@]3(C)C(=CC[C@@H]4[C@@]5(C)C/C(=C/c6cccnc6)C(=O)C(C)(C)[C@@H]5CC[C@]43C)[C@H]12 | 3050 nM | 2000 nM | 2300 nM | 2910 nM | 2450 nM | 2160 nM | 1890 nM | – | 670 nM | 802 nM | 1080 nM | 511 nM | 669 nM | – | 1470 nM | 1410 nM
O=Cc1cn(Cc2cccc(Cl)c2)c2ccccc12 | 26300 nM | 24400 nM | 26900 nM | 3630 nM | 33800 nM | 13400 nM | 16000 nM | 18600 nM | 8950 nM | 11400 nM | 13500 nM | 736 nM | 2390 nM | 5250 nM | 11700 nM | 1050 nM
Cc1ccc(NC(=O)c2cc3ccccc3c(N=Nc3ccccc3O)c2O)c(C)c1 | 10500 nM | 11800 nM | 12700 nM | 20000 nM | 5870 nM | – | 2200 nM | – | – | – | – | – | – | – | – | –
COc1ccc(C/C(C)=C(\c2ccc(OCCN3CCOCC3)cc2)c2ccc(OC(=O)Cc3ccccc3)cc2)cc1 | 12800 nM | 994 nM | 1190 nM | 1090 nM | 1030 nM | 1280 nM | 989 nM | 996 nM | 510 nM | 590 nM | 531 nM | 483 nM | 496 nM | 502 nM | 960 nM | 578 nM
CC(C)(O)C1CCC(Nc2ccc3ncc(-c4cccc(C(F)(F)F)c4)n3n2)CC1 (configuration not stated) | 18200 nM | 4640 nM | 4490 nM | – | 13600 nM | 5130 nM | 18500 nM | – | 1940 nM | 1230 nM | 2250 nM | 1500 nM | 3540 nM | – | 3790 nM | –
CC(C)[C@@]12C[C@@H](OC(=O)COC(=O)/C=C/c3ccccc3)[C@@](C)(O1)[C@@H]1CC[C@@H](C)[C@H]1[C@@H]2OC(=O)/C=C/c1ccccc1 | > 100000 nM | > 100000 nM | > 100000 nM | > 100000 nM | > 100000 nM | > 100000 nM | > 100000 nM | > 100000 nM | > 27100 nM | > 100000 nM | > 100000 nM | > 100000 nM | > 100000 nM | 508 nM | – | > 100000 nM
C=CC1=C[C@@H]2[C@@H]3O[C@]4(CC[C@H](O4)[C@@H](C)C[C@@H](O)C3=O)C[C@H](O)C3=NCC[C@@]32CC1 | 5.75 nM | 3.41 nM | < 3.33 nM | 4.86 nM | < 3.33 nM | 6.34 nM | 3.71 nM | < 3.33 nM | < 3.33 nM | < 3.33 nM | < 3.33 nM | < 3.33 nM | < 3.33 nM | < 3.33 nM | < 3.33 nM | < 3.33 nM
CC(=O)NCCSC(=O)c1ccccc1 | 2020 nM | 425 nM | 242 nM | 419 nM | 304 nM | – | 275 nM | 3750 nM | – | – | – | – | – | – | – | –
CCN(CCNc1ccc(C)c2sc3cc(Cl)ccc3c(=O)c12)CC(C)O (configuration not stated) | 16000 nM | 2750 nM | 3140 nM | – | 2770 nM | 4140 nM | 3020 nM | 10100 nM | 1440 nM | 1750 nM | 1360 nM | 1760 nM | 1660 nM | 2710 nM | 3290 nM | –
Cc1ccc(/C=C2/SC(Nc3nc(-c4nc(NC5=NC(=O)/C(=C\c6ccc(C)cc6)S5)sc4C)c(C)s3)=NC2=O)cc1 | > 50000 nM | 8400 nM | 1210 nM | 20500 nM | – | > 50000 nM | 20900 nM | 31900 nM | 487 nM | 64.2 nM | – | 22300 nM | 9200 nM | 1210 nM | 2510 nM | 1040 nM
